Literature values in article PMC9516332 (Frontiers in Oncology, 2022).
Like-named read-outs stand apart in the source and are kept apart here.

Assays:
Details in all cases: cited from earlier work
[1] = target: T1, panel of 255 wild-type kinases (Homo sapiens, UniProt P21709)
T1 sequence (P21709 26-976): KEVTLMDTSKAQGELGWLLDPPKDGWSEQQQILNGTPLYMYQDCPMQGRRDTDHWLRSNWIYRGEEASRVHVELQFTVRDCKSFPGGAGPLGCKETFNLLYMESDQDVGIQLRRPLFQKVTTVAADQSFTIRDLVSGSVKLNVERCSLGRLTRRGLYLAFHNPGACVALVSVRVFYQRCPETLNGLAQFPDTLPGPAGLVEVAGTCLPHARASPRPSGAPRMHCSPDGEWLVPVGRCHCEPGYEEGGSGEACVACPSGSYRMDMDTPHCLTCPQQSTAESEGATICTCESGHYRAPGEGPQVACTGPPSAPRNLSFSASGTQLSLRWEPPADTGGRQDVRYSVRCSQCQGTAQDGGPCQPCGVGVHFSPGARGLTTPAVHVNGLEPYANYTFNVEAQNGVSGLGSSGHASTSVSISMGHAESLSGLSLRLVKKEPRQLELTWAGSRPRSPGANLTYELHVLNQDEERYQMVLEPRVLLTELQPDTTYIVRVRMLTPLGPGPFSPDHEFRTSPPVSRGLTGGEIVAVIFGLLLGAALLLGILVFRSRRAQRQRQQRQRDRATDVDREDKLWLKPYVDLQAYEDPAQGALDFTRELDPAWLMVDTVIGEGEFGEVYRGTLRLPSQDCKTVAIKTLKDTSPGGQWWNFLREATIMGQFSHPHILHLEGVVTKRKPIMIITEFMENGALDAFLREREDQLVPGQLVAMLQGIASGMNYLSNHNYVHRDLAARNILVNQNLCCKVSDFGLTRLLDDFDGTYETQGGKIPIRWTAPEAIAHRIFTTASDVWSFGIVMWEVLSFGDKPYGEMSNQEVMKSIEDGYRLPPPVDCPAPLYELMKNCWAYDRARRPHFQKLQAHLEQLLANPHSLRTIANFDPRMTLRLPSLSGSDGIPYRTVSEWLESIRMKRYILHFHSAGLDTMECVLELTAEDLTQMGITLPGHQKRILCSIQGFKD

[2] = target: T2, panel of 255 wild-type kinases (Homo sapiens, UniProt Q16832)
T2 sequence (Q16832 22-855): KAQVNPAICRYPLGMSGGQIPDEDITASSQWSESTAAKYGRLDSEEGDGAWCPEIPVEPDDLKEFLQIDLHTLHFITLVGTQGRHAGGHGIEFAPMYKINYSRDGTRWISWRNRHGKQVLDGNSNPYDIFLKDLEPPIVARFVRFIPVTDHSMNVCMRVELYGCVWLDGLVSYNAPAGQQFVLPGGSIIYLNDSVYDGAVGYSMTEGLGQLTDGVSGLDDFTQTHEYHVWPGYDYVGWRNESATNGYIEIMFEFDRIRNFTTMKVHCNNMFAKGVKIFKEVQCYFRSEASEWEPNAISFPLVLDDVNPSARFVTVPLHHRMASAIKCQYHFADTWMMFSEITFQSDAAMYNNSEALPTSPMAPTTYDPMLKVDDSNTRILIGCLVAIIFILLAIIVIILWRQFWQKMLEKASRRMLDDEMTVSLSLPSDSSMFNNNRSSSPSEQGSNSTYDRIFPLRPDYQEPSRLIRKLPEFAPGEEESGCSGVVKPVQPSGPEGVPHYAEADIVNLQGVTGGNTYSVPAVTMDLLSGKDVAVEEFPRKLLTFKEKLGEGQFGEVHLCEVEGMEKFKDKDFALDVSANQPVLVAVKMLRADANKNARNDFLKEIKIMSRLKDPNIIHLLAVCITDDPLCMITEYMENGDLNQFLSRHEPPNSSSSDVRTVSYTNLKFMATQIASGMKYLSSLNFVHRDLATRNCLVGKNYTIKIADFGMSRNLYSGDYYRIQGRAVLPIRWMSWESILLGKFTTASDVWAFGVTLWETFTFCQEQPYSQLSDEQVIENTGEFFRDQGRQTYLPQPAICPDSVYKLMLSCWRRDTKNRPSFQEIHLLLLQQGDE

[3] = target: T3, panel of 255 wild-type kinases (Homo sapiens, UniProt Q8TD19)
T3 sequence (Q8TD19 1-979): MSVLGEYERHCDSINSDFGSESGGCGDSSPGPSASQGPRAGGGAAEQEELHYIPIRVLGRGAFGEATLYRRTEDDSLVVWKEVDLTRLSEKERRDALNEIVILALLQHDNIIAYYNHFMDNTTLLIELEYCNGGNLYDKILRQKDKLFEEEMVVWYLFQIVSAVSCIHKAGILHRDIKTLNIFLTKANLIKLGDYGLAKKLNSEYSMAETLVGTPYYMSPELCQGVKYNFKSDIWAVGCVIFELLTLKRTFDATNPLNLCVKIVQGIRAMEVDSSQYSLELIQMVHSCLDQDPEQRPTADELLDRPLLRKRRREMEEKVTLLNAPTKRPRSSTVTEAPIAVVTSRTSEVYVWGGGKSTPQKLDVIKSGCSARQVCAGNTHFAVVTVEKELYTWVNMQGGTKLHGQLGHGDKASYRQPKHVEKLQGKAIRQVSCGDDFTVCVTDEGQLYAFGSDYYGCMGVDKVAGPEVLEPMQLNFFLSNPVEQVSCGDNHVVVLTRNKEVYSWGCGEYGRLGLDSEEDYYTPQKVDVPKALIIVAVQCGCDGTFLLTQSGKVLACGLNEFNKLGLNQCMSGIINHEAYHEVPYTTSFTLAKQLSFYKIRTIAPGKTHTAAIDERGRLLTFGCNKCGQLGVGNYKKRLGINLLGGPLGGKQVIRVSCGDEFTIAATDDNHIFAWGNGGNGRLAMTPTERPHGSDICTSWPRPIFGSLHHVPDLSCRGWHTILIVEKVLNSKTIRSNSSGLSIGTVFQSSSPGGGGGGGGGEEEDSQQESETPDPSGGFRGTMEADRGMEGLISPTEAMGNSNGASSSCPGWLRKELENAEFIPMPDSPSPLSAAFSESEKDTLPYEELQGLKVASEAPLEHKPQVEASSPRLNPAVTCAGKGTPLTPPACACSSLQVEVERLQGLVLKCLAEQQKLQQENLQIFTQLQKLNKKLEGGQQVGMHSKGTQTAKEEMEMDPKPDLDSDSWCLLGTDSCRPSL

[4] = target: panel of 255 wild-type kinases (Homo sapiens, UniProt Q9UBS0)
[5] = kinase EPHA1, 1 µmol/L single concentration, ref DOI: 10.1158/1535-7163.MCT-18-0877
[6] = kinase DDR2, 1 µmol/L single concentration, ref DOI: 10.1158/1535-7163.MCT-18-0877
[7] = NEK9, 1 µmol/L single concentration, ref DOI: 10.1158/1535-7163.MCT-18-0877
[8] = p70S6Kβ, 1 µmol/L single concentration, ref DOI: 10.1158/1535-7163.MCT-18-0877
[9] = kinase EPHA1, 1 µmol/L single concentration, ref DOI: 10.1371/journal.pone.0092146
[10] = kinase DDR2, 1 µmol/L single concentration, ref DOI: 10.1371/journal.pone.0092146
[11] = NEK9, 1 µmol/L single concentration, ref DOI: 10.1371/journal.pone.0092146
[12] = p70S6Kβ, 1 µmol/L single concentration, ref DOI: 10.1371/journal.pone.0092146

## O=C(c1ccc(F)c(F)c1Nc1ccc(I)cc1F)N1CC(O)([C@@H]2CCCCN2)C1 [cobimetinib]
[1]; [5]
  %-inhibition at 1 µmol/L, EPHA1: 0.613%
[2]; [6]
  %-inhibition at 1 µmol/L, DDR2: 0.567%
[3]; [7]
  %-inhibition, NEK9: -2.32%
[4]; [8]
  %-inhibition, p70S6Kβ: 5.59%

## CO[C@@H]1[C@H](N(C)C(=O)c2ccccc2)C[C@H]2O[C@]1(C)n1c3ccccc3c3c4c(c5c6ccccc6n2c5c31)C(=O)NC4 [midostaurin]
[1]; [5]
  %-inhibition at 1 µmol/L, EPHA1: 9%
[2]; [6]
  %-inhibition at 1 µmol/L, DDR2: 97%
[3]; [7]
  %-inhibition, NEK9: 48%
[4]; [8]
  %-inhibition, p70S6Kβ: 69%

## C=CC(=O)N1CCC[C@@H](n2nc(-c3ccc(Oc4ccccc4)cc3)c3c(N)ncnc32)C1 [ibrutinib]
[1]; [5]
  %-inhibition at 1 µmol/L, EPHA1: 50%
[2]; [6]
  %-inhibition at 1 µmol/L, DDR2: 17%
[3]; [7]
  %-inhibition, NEK9: -3.28%
[4]; [8]
  %-inhibition, p70S6Kβ: 0.87%

## C[C@@H](Oc1cc(-c2cnn(C3CCNCC3)c2)cnc1N)c1c(Cl)ccc(F)c1Cl [crizotinib]
[1]; [9]
  %-inhibition at 1 µmol/L, EPHA1: 97%
[2]; [10]
  %-inhibition at 1 µmol/L, DDR2: 88%
[3]; [11]
  %-inhibition, NEK9: 57%
[4]; [12]
  %-inhibition, p70S6Kβ: 6%

## Cc1cc(Nc2ncc(Cl)c(Nc3ccccc3S(=O)(=O)C(C)C)n2)c(OC(C)C)cc1C1CCNCC1 [ceritinib]
[1]; [5]
  %-inhibition at 1 µmol/L, EPHA1: 45%
[2]; [6]
  %-inhibition at 1 µmol/L, DDR2: 12%
[3]; [7]
  %-inhibition, NEK9: 9%
[4]; [8]
  %-inhibition, p70S6Kβ: 70%

## CC(C)(C)c1nc(-c2cccc(NS(=O)(=O)c3c(F)cccc3F)c2F)c(-c2ccnc(N)n2)s1 [dabrafenib]
[1]; [9]
  %-inhibition at 1 µmol/L, EPHA1: 44%
[2]; [10]
  %-inhibition at 1 µmol/L, DDR2: 100%
[3]; [11]
  %-inhibition, NEK9: 101%
[4]; [12]
  %-inhibition, p70S6Kβ: -0.554%

## C=CC(=O)Nc1cc(Nc2nccc(-c3cn(C)c4ccccc34)n2)c(OC)cc1N(C)CCN(C)C [osimertinib]
[1]; [5]
  %-inhibition at 1 µmol/L, EPHA1: 13%
[2]; [6]
  %-inhibition at 1 µmol/L, DDR2: 25%
[3]; [7]
  %-inhibition, NEK9: 9%
[4]; [8]
  %-inhibition, p70S6Kβ: 20%

## CC#CC(=O)N1CCC[C@H]1c1nc(-c2ccc(C(=O)Nc3ccccn3)cc2)c2c(N)nccn12 [acalabrutinib]
[1]; [5]
  %-inhibition at 1 µmol/L, EPHA1: -0.591%
[2]; [6]
  %-inhibition at 1 µmol/L, DDR2: 6%
[3]; [7]
  %-inhibition, NEK9: -3.18%
[4]; [8]
  %-inhibition, p70S6Kβ: -14%

## COc1cc(N2CCC(N3CCN(C)CC3)CC2)ccc1Nc1ncc(Cl)c(Nc2ccccc2P(C)(C)=O)n1 [brigatinib]
[1]
  %-inhibition at 1 µmol/L, EPHA1: 61%
[2]
  %-inhibition at 1 µmol/L, DDR2: 60%
[3]
  %-inhibition, NEK9: 70%
[4]
  %-inhibition, p70S6Kβ: 98%

## CCCS(=O)(=O)Nc1ccc(F)c(C(=O)c2c[nH]c3ncc(-c4ccc(Cl)cc4)cc23)c1F [vemurafenib]
[1]; [9]
  %-inhibition at 1 µmol/L, EPHA1: -9%
[2]; [10]
  %-inhibition at 1 µmol/L, DDR2: 69%
[3]; [11]
  %-inhibition, NEK9: -2.2%
[4]; [12]
  %-inhibition, p70S6Kβ: 0.235%

## CCc1cc2c(cc1N1CCC(N3CCOCC3)CC1)C(C)(C)c1[nH]c3cc(C#N)ccc3c1C2=O [alectinib]
[1]; [5]
  %-inhibition at 1 µmol/L, EPHA1: 5.62%
[2]; [6]
  %-inhibition at 1 µmol/L, DDR2: 8%
[3]; [7]
  %-inhibition, NEK9: 0.368%
[4]; [8]
  %-inhibition, p70S6Kβ: 9%

## CC(=O)Nc1cccc(-n2c(=O)n(C3CC3)c(=O)c3c(Nc4ccc(I)cc4F)n(C)c(=O)c(C)c32)c1 [trametinib]
[1]; [9]
  %-inhibition at 1 µmol/L, EPHA1: -1.61%
[2]; [10]
  %-inhibition at 1 µmol/L, DDR2: 0.612%
[3]; [11]
  %-inhibition, NEK9: -3%
[4]; [12]
  %-inhibition, p70S6Kβ: -1%
